pIC50: −log10 of the molar value.
Legend:
secreted VEGF protein = assay: hypoxic induction of secreted VEGF protein in T47D cells (ELISA); assay type: cell-based, human
Procedure: The effects of compounds 1 and 2 on hypoxic induction of secreted VEGF protein are examined in T47D cells. Exponentially grown T47D cells are plated at the density of 30,000 cells/well into 96-well plates. Compound treatment and hypoxic exposure are the same as described. Following incubation, the concentration of secreted VEGF protein in the conditioned media is determined by ELISA (R & D Systems) and the data normalized by the number of viable cells. Results shown in FIG. 4 are averages from a representative experiment performed in quadruplicate, the bars represent standard error. An asterisk (*) indicates the level of significance (p<0.01) relative to the hypoxic control, two asterisks (**) (p<0.0001), and no asterisk indicates no statistical difference (ANOVA and Fisher's PLSD post hoc test).
As discussed earlier, one important HIF-1 target gene is VEGF, a key factor for tumor angiogenesis. Compounds that can inhibit both HIF-1 activation and the production of secreted VEGF protein represent potential efficacious chemotherapeutic agents that inhibit both tumor survival and hypoxia induced angiogenesis. The effects of four active examples (compounds 2, 3, 4, and 5) on hypoxic induction of secreted VEGF protein are examined in T47D cells and the data are presented in FIG. 9. Exponentially grown T47D cells are plated at the density of 356,000 cells/well into 12-well plates. Compound treatment and hypoxic exposure are the same as described. Following incubation, the concentration of secreted VEGF protein in the conditioned media is determined by ELISA (R & D Systems) and the data normalized by the number of viable cells. […] Hypoxic exposure leads to a 2-fold increase in the level of secreted VEGF protein. […] The level of significance (p<0.01) is determined by ANOVA and Fisher's PLSD post hoc test. The exemplary compounds 2, 3, and 4 all completely block hypoxic induction of secreted VEGF protein at concentrations as low as 10 nM. The exemplary compound 5 inhibits the hypoxic induction by 60% at 10 nM, and completely blocks at 100 nM. When tested at 100 nM, none of the compounds interfere with the ELISA assay using VEGF standard (no greater than 15% difference).

SK-MEL-2 = assay: NCI in vitro cell line screen (SRB), Melanoma SK-MEL-2; assay type: cell-based
Procedure: (§1) For exemplary purposes, an embodiment of the present invention was tested for activity with respect to certain cancer cell lines. The following Tables show results from in vitro 60-cell line antitumor testing from the US National Cancer Institute Developmental Therapeutics Program (NCI-DTP) on compound 2. The testing was in connection with the NCI's In Vitro Cell Line Screening Project (IVCLSP). Detailed information regarding the experiments and their interpretation is available from the NCI.

KM12 = assay: NCI in vitro cell line screen (SRB), Colon Cancer KM12; assay type: cell-based
Procedure: as §1

OVCAR-8 = assay: NCI in vitro cell line screen (SRB), Ovarian Cancer OVCAR-8; assay type: cell-based
Procedure: as §1

ACHN = assay: NCI in vitro cell line screen (SRB), Renal Cancer ACHN; assay type: cell-based
Procedure: as §1

HIF-1 = assay: pTK-HRE3-luc reporter assay, hypoxia-induced HIF-1 activation in T47D cells; settings: Homo sapiens, T47D, read-out: IC50, inhibition of hypoxic activation of HIF-1
DU-145 = assay: NCI in vitro cell line screen (SRB), Prostate Cancer DU-145; assay type: cell-based
Procedure: as §1

OVCAR-5 = assay: NCI in vitro cell line screen (SRB), Ovarian Cancer OVCAR-5; assay type: cell-based
Procedure: as §1

HL-60(TB) = assay: NCI in vitro cell line screen (SRB), Leukemia HL-60(TB); assay type: cell-based
Procedure: as §1

[1] = Homo sapiens, read-out: LC50 (the source's name)

With `COc1ccc([C@@H](O)[C@@H](C)Oc2ccc([C@H]3O[C@H](c4ccc(O[C@H](C)[C@H](O)c5ccc6c(c5)OCO6)c(OC)c4)[C@H](C)[C@H]3C)cc2OC)cc1OC` [Compound 2, manassantin B] the “inhibition of VEGF protein levels relative to the hypoxia-induced positive control” value (secreted VEGF protein; 12-well, p<0.01) was “significantly inhibit”, the “reduction of secreted VEGF protein induced by hypoxia” value (secreted VEGF protein; 96-well, 1 at 100 nM, 2 at 10 nM, PD98059 at 100 μM) was “statistically significant reduction” and the “relative potency in reducing the level of secreted VEGF protein” value (secreted VEGF protein; hypoxia) was “ten times more potent than 1”. The TGI (SK-MEL-2) was greater than 1.00E−4 Molar, the GI50 (SK-MEL-2; Homo sapiens) was greater than 100 µM and the CC50 (SK-MEL-2; [1]) was greater than 100 µM. The “Mean Optical Densities” value (SK-MEL-2; Log10 Concentration −4.0 Molar) was 0.764, the “Percent Growth” value (SK-MEL-2; Log10 Concentration −4.0 Molar) was 54% and the “Mean Optical Densities” value (SK-MEL-2; Log10 Concentration −5.0 Molar) was 0.928. The “Percent Growth” value (SK-MEL-2; Log10 Concentration −5.0 Molar) was 78%, the “Mean Optical Densities” value (SK-MEL-2; Log10 Concentration −6.0 Molar) was 1.066 and the “Percent Growth” value (SK-MEL-2; Log10 Concentration −6.0 Molar) was 98%. The “Mean Optical Densities” value (SK-MEL-2; Log10 Concentration −7.0 Molar) was 0.900, the “Percent Growth” value (SK-MEL-2; Log10 Concentration −7.0 Molar) was 74% and the “Mean Optical Densities” value (SK-MEL-2; Log10 Concentration −8.0 Molar) was 1.020. The “Percent Growth” value (SK-MEL-2; Log10 Concentration −8.0 Molar) was 92%, the TGI (KM12) was greater than 1.00E−4 Molar and the GI50 (KM12; Homo sapiens) was 7.78 µM. For the same molecule, the CC50 (KM12; [1]) was greater than 100 µM, the “Mean Optical Densities” value (KM12; Log10 Concentration −4.0 Molar) was 1.287 and the “Percent Growth” value (KM12; Log10 Concentration −4.0 Molar) was 50%. For the same molecule, the “Mean Optical Densities” value (KM12; Log10 Concentration −5.0 Molar) was 1.205, the “Percent Growth” value (KM12; Log10 Concentration −5.0 Molar) was 44% and the “Mean Optical Densities” value (KM12; Log10 Concentration −6.0 Molar) was 1.983. The “Percent Growth” value (KM12; Log10 Concentration −6.0 Molar) was 98%, the “Mean Optical Densities” value (KM12; Log10 Concentration −7.0 Molar) was 1.876 and the “Percent Growth” value (KM12; Log10 Concentration −7.0 Molar) was 90%. For the same molecule, the “Mean Optical Densities” value (KM12; Log10 Concentration −8.0 Molar) was 1.960, the “Percent Growth” value (KM12; Log10 Concentration −8.0 Molar) was 96% and the TGI (OVCAR-8) was greater than 1.00E−4 Molar. The GI50 (OVCAR-8; Homo sapiens) was 23.7 µM, the CC50 (OVCAR-8; [1]) was greater than 100 µM and the “Mean Optical Densities” value (OVCAR-8; Log10 Concentration −4.0 Molar) was 0.873. For the same molecule, the “Percent Growth” value (OVCAR-8; Log10 Concentration −4.0 Molar) was 46%, the “Mean Optical Densities” value (OVCAR-8; Log10 Concentration −5.0 Molar) was 0.952 and the “Percent Growth” value (OVCAR-8; Log10 Concentration −5.0 Molar) was 53%. The “Mean Optical Densities” value (OVCAR-8; Log10 Concentration −6.0 Molar) was 1.298, the “Percent Growth” value (OVCAR-8; Log10 Concentration −6.0 Molar) was 82% and the “Mean Optical Densities” value (OVCAR-8; Log10 Concentration −7.0 Molar) was 1.092. For the same molecule, the “Percent Growth” value (OVCAR-8; Log10 Concentration −7.0 Molar) was 65%, the “Mean Optical Densities” value (OVCAR-8; Log10 Concentration −8.0 Molar) was 1.311 and the “Percent Growth” value (OVCAR-8; Log10 Concentration −8.0 Molar) was 83%. For the same molecule, the TGI (ACHN) was 5.02E−5 Molar, the GI50 (ACHN; Homo sapiens) was 1.82 µM and the CC50 (ACHN; [1]) was greater than 100 µM. For the same molecule, the “Mean Optical Densities” value (ACHN; Log10 Concentration −4.0 Molar) was 0.297, the “Percent Growth” value (ACHN; Log10 Concentration −4.0 Molar) was −5% and the “Mean Optical Densities” value (ACHN; Log10 Concentration −5.0 Molar) was 0.351. For the same molecule, the “Percent Growth” value (ACHN; Log10 Concentration −5.0 Molar) was 11%, the “Mean Optical Densities” value (ACHN; Log10 Concentration −6.0 Molar) was 0.554 and the “Percent Growth” value (ACHN; Log10 Concentration −6.0 Molar) was 64%. For the same molecule, the “Mean Optical Densities” value (ACHN; Log10 Concentration −7.0 Molar) was 0.644, the “Percent Growth” value (ACHN; Log10 Concentration −7.0 Molar) was 88% and the “Mean Optical Densities” value (ACHN; Log10 Concentration −8.0 Molar) was 0.590. The “Percent Growth” value (ACHN; Log10 Concentration −8.0 Molar) was 73%, the pIC50 (HIF-1) was 8.52 and the TGI (DU-145) was greater than 1.00E−4 Molar. For the same molecule, the GI50 (DU-145; Homo sapiens) was 10.6 µM, the CC50 (DU-145; [1]) was greater than 100 µM and the “Mean Optical Densities” value (DU-145; Log10 Concentration −4.0 Molar) was 0.487. The “Percent Growth” value (DU-145; Log10 Concentration −4.0 Molar) was 28%, the “Mean Optical Densities” value (DU-145; Log10 Concentration −5.0 Molar) was 0.623 and the “Percent Growth” value (DU-145; Log10 Concentration −5.0 Molar) was 51%. For the same molecule, the “Mean Optical Densities” value (DU-145; Log10 Concentration −6.0 Molar) was 0.800, the “Percent Growth” value (DU-145; Log10 Concentration −6.0 Molar) was 81% and the “Mean Optical Densities” value (DU-145; Log10 Concentration −7.0 Molar) was 0.831. The “Percent Growth” value (DU-145; Log10 Concentration −7.0 Molar) was 86%, the “Mean Optical Densities” value (DU-145; Log10 Concentration −8.0 Molar) was 0.817 and the “Percent Growth” value (DU-145; Log10 Concentration −8.0 Molar) was 83%. For the same molecule, the TGI (OVCAR-5) was greater than 1.00E−4 Molar, the CC50 (OVCAR-5; [1]) was greater than 100 µM and the “Mean Optical Densities” value (OVCAR-5; Log10 Concentration −4.0 Molar) was 0.713. The “Percent Growth” value (OVCAR-5; Log10 Concentration −4.0 Molar) was 11%, the “Mean Optical Densities” value (OVCAR-5; Log10 Concentration −5.0 Molar) was 0.752 and the “Percent Growth” value (OVCAR-5; Log10 Concentration −5.0 Molar) was 26%. The “Mean Optical Densities” value (OVCAR-5; Log10 Concentration −6.0 Molar) was 0.862, the “Percent Growth” value (OVCAR-5; Log10 Concentration −6.0 Molar) was 68% and the “Mean Optical Densities” value (OVCAR-5; Log10 Concentration −7.0 Molar) was 0.853. For the same molecule, the “Percent Growth” value (OVCAR-5; Log10 Concentration −7.0 Molar) was 65%, the “Mean Optical Densities” value (OVCAR-5; Log10 Concentration −8.0 Molar) was 0.696 and the “Percent Growth” value (OVCAR-5; Log10 Concentration −8.0 Molar) was 4%. It also gave a TGI (HL-60(TB)) greater than 1.00E−4 Molar, a GI50 (HL-60(TB); Homo sapiens) greater than 100 µM and a CC50 (HL-60(TB); [1]) greater than 100 µM. For the same molecule, the “Mean Optical Densities” value (HL-60(TB); Log10 Concentration −4.0 Molar) was 0.426, the “Percent Growth” value (HL-60(TB); Log10 Concentration −4.0 Molar) was 58% and the “Mean Optical Densities” value (HL-60(TB); Log10 Concentration −5.0 Molar) was 0.491. The “Percent Growth” value (HL-60(TB); Log10 Concentration −5.0 Molar) was 76%, the “Mean Optical Densities” value (HL-60(TB); Log10 Concentration −6.0 Molar) was 0.555 and the “Percent Growth” value (HL-60(TB); Log10 Concentration −6.0 Molar) was 93%. For the same molecule, the “Mean Optical Densities” value (HL-60(TB); Log10 Concentration −7.0 Molar) was 0.543, the “Percent Growth” value (HL-60(TB); Log10 Concentration −7.0 Molar) was 90% and the “Mean Optical Densities” value (HL-60(TB); Log10 Concentration −8.0 Molar) was 0.469. The “Percent Growth” value (HL-60(TB); Log10 Concentration −8.0 Molar) was 70%.

— patent US20090137664A1, “SAURURUS CERNUUS COMPOUNDS THAT INHIBIT CELLULAR RESPONSES TO HYPOXIA” (priority 2003, published 2009)
